Measurements from US10035790B2, “RORγ modulators” (BRISTOL-MYERS SQUIBB COMPANY, priority 2012, dated 2018).
pIC50: −log10 of the molar value.

Biological target: T1, ligand binding domain of human RORγ (A262-S507) (Homo sapiens, UniProt P51449)
T1 construct: made in house; host or cells: E. coli
T1 sequence (P51449 262-507): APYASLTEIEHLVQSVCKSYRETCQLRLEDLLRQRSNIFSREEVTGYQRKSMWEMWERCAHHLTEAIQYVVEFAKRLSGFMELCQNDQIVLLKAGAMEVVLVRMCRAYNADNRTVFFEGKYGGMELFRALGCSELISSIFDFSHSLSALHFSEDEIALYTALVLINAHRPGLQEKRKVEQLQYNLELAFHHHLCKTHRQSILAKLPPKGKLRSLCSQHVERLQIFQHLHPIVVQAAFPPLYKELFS
Test: General RORγ SPA binding assay (competition with [3H]25-hydroxycholesterol)
Details: RORγ SPA binding assay, inhibition of [3H]25-hydroxycholesterol binding; read-out: IC50
How it was run: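 Step one: compound meets 50 nM nickel-purified, His-tagged protein from E. coli for 15 min at room temperature (PBS, 0.5% fatty acid free BSA). Step two: radioligand is added for another 15 min. Step three: SPA beads are added for 30 min before scintillation reading and IC50 fitting.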

Compound	pIC50
Cc1ncc(C(C)(CO)CNc2ccnc(C(F)(F)F)n2)c(C2CCN(C(=O)Cc3c(F)cccc3F)CC2)n1 (centres unmarked) [Compound F5, 2-(2,6-Difluorophenyl)-1-(4-(5-(1-hydroxy-2-methyl-3-(2-(trifluoromethyl)pyrimidin-4-ylamino)propan-2-yl)-2-methylpyrimidin-4-yl)piperidin-1-yl)ethanone]	6.99
Cc1ncc(C(C)(C)CNc2ccnc(C(F)(F)F)n2)c(C2CCN(C(=O)Nc3c(F)cccc3F)CC2)n1 [Compound F8, N-(2,6-Difluorophenyl)-4-(2-methyl-5-(2-methyl-1-(2-(trifluoromethyl)pyrimidin-4-ylamino)propan-2-yl)pyrimidin-4-yl)piperidine-1-carboxamide]	5.87
Cc1ncc(C(=O)NNc2cccc(Cl)c2)c(C2CCN(C(=O)Cc3c(F)cccc3F)CC2)n1 [Compound G1, N-(3-Chlorophenyl)-4-(1-(2-(2,6-difluorophenyl)acetyl)piperidin-4-yl)-2-methylpyrimidine-5-carbohydrazide]	8.02
O=C(NNc1cccc(Cl)c1)c1cnc(C2CC2)nc1C1CCN(C(=O)Cc2c(F)cccc2F)CC1 [Compound G2, N′-(3-chlorophenyl)-2-cyclopropyl-4-(1-(2-(2,6-difluorophenyl)acetyl)piperidin-4-yl)pyrimidine-5-carbohydrazide]	8.34
Cc1nc(C)c(C(=O)NNc2cccc(Cl)c2)c(C2CCN(C(=O)Cc3c(F)cccc3F)CC2)n1 [Compound G4, N′-(3-chlorophenyl)-4-(1-(2-(2,6-difluorophenyl)acetyl)piperidin-4-yl)-2,6-dimethylpyrimidine-5-carbohydrazide]	7.92
Cc1ncc(C(=O)NOc2cccc(Cl)c2)c(C2CCN(C(=O)Cc3c(F)cccc3F)CC2)n1 [Compound H3, N-(3-chlorophenoxy)-4-(1-(2-(2,6-difluorophenyl)acetyl)piperidin-4-yl)-2-methylpyrimidine-5-carboxamide]	7.08
Cc1ncc(C(=O)NOc2ccccc2)c(C2CCN(C(=O)Cc3c(F)cccc3F)CC2)n1 [Compound H7, 4-(1-(2-(2,6-difluorophenyl)acetyl)piperidin-4-yl)-2-methyl-N-phenoxypyrimidine-5-carboxamide]	5.76
Cc1cc(C)cc(CNC(=O)c2c(C3CCN(C(=O)Cc4c(F)cccc4F)CC3)nc(C)[nH]c2=O)c1 [Compound I3, 4-(1-(2-(2,6-Difluorophenyl)acetyl)piperidin-4-yl)-N-(3,5-dimethylbenzyl)-2-methyl-6-oxo-1,6-dihydropyrimidine-5-carboxamide]	7.97
Cc1nc(C2CCN(C(=O)Cc3c(F)cccc3F)CC2)c(C(=O)NCc2ccnc(C(F)(F)F)c2)c(=O)[nH]1 [Compound I5, 4-(1-(2-(2,6-difluorophenyl)acetyl)piperidin-4-yl)-2-methyl-6-oxo-N-((2-(trifluoromethyl)pyridin-4-yl)methyl)-1,6-dihydropyrimidine-5-carboxamide]	7.16
CCn1c(C)nc(C2CCN(C(=O)Cc3c(F)cccc3F)CC2)c(C(=O)NCc2cccc(C(F)(F)F)n2)c1=O [Compound I8, 4-(1-(2-(2,6-Difluorophenyl)acetyl)piperidin-4-yl)-1-ethyl-2-methyl-6-oxo-N-((6-(trifluoromethyl)pyridin-2-yl)methyl)-1,6-dihydropyrimidine-5-carboxamide]	5.64
Cc1cc(C)cc(C/C=C\c2cnc(C)nc2C2CCN(C(=O)Cc3c(F)cccc3F)CC2)c1 [Compound J2, (Z)-2-(2,6-Difluorophenyl)-1-(4-(5-(3-(3,5-dimethylphenyl)prop-1-enyl)-2-methylpyrimidin-4-yl)piperidin-1-yl)ethanone]	7.55
Cc1cc(C)cc(CCCc2cnc(C)nc2C2CCN(C(=O)Cc3c(F)cccc3F)CC2)c1 [Compound J3, 2-(2,6-Difluorophenyl)-1-(4-(5-(3-(3,5-dimethylphenyl)propyl)-2-methylpyrimidin-4-yl)piperidin-1-yl)ethanone]	8.11
O=C(Cc1c(F)cccc1F)N1CCC(c2ncncc2C(=S)NCc2ccc(Cl)c(Cl)c2)CC1 [Compound L1, N-(3,4-Dichlorobenzyl)-4-(1-(2-(2,6-difluorophenyl)acetyl)piperidin-4-yl)pyrimidine-5-carbothioamide]	7.09

Continued, values first:

pIC50	Compound
6.71	COC(=O)C(C)(CNc1ccnc(C(F)(F)F)n1)c1cnc(C)nc1C1CCN(C(=O)Cc2c(F)cccc2F)CC1 (centres unmarked) [Compound F4, Methyl 2-(4-(1-(2-(2,6-difluorophenyl)acetyl)piperidin-4-yl)-2-methylpyrimidin-5-yl)-2-methyl-3-(2-(trifluoromethyl)pyrimidin-4-ylamino)propanoate]
7.35	Cc1cc(C)cc(CNCc2cnc(C)nc2C2CCN(C(=O)Cc3c(F)cccc3F)CC2)c1 [Compound F6, 2-(2,6-Difluorophenyl)-1-(4-(5-((3,5-dimethylbenzylamino)methyl)-2-methylpyrimidin-4-yl)piperidin-1-yl)ethanone]
8.01	Cc1cc(C)cc(CNC(c2cnc(C)nc2C2CCN(C(=O)Cc3c(F)cccc3F)CC2)C(F)(F)F)c1 (centres unmarked) [Compound F7, 2-(2,6-Difluorophenyl)-1-(4-(5-(1-(3,5-dimethylbenzylamino)-2,2,2-trifluoroethyl)-2-methylpyrimidin-4-yl)piperidin-1-yl)ethanone]
7.52	Cc1cc(C)cc(CNC(C)c2cnc(C)nc2C2CCN(C(=O)Cc3c(F)cccc3F)CC2)c1 (centres unmarked) [Compound F9, 2-(2,6-Difluorophenyl)-1-(4-(5-(1-(3,5-dimethylbenzylamino)ethyl)-2-methylpyrimidin-4-yl)piperidin-1-yl)ethanone]
8.09	CCc1ncc(C(=O)NNc2cccc(Cl)c2)c(C2CCN(C(=O)Cc3c(F)cccc3F)CC2)n1 [Compound G3, N′-(3-chlorophenyl)-4-(1-(2-(2,6-difluorophenyl)acetyl)piperidin-4-yl)-2-ethylpyrimidine-5-carbohydrazide]
6.49	Cc1ncc(C(=O)NOc2cccc(C(F)(F)F)c2)c(C2CCN(C(=O)Cc3c(F)cccc3F)CC2)n1 [Compound H1, 4-{1-[(2,6-Difluorophenyl)acetyl]piperidin-4-yl}-2-methyl-N-{[3-(trifluoromethyl)-phenyl]oxy}pyrimidine-5-carboxamide]
7.31	Cc1cc(C)cc(ONC(=O)c2cnc(C)nc2C2CCN(C(=O)Cc3c(F)cccc3F)CC2)c1 [Compound H2, 4-(1-(2-(2,6-difluorophenyl)acetyl)piperidin-4-yl)-N-(3,5-dimethylphenoxy)-2-methylpyrimidine-5-carboxamide]
6.53	Cc1ncc(C(=O)NOc2cccc(OC(F)(F)F)c2)c(C2CCN(C(=O)Cc3c(F)cccc3F)CC2)n1 [Compound H4, 4-(1-(2-(2,6-difluorophenyl)acetyl)piperidin-4-yl)-2-methyl-N-(3-(trifluoromethoxy)phenoxy)pyrimidine-5-carboxamide]
6.30	Cc1nc(C)c(C(=O)NOc2cccc(Cl)c2)c(C2CCN(C(=O)Cc3c(F)cccc3F)CC2)n1 [Compound H5, N-(3-chlorophenoxy)-4-(1-(2-(2,6-difluorophenyl)acetyl)piperidin-4-yl)-2,6-dimethylpyrimidine-5-carboxamide]
5.79	Cc1ncc(C(=O)NOc2cc(F)cc(Cl)c2)c(C2CCN(C(=O)Cc3c(F)cccc3F)CC2)n1 [Compound H6, N-(3-chloro-5-fluorophenoxy)-4-(1-(2-(2,6-difluorophenyl)acetyl)piperidin-4-yl)-2-methylpyrimidine-5-carboxamide]
7.39	Cc1nc(C2CCN(C(=O)Cc3c(F)cccc3F)CC2)c(C(=O)NCc2cccc(C(F)(F)F)n2)c(=O)[nH]1 [Compound I1, 4-{1-[(2,6-Difluorophenyl)acetyl]piperidin-4-yl}-2-methyl-6-oxo-N-{[6-(trifluoromethyl)pyridin-2-yl]methyl}-1,6-dihydropyrimidine-5-carboxamide]
7.15	Cc1nc(NCc2ccnc(C(F)(F)F)c2)c(C(=O)NCc2ccnc(C(F)(F)F)c2)c(C2CCN(C(=O)Cc3c(F)cccc3F)CC2)n1 [Compound I2, 4-{1-[(2,6-Difluorophenyl)acetyl]piperidin-4-yl}-2-methyl-N-{[2-(trifluoromethyl)pyridin-4-yl]methyl}-6-({[2-(trifluoromethyl)pyridin-4-yl]methyl}amino)pyrimidine-5-carboxamide]
7.96	Cc1nc(C2CCN(C(=O)Cc3c(F)cccc3F)CC2)c(C(=O)NCc2cccc(Cl)c2)c(=O)[nH]1 [Compound I4, N-(3-chlorobenzyl)-4-(1-(2-(2,6-difluorophenyl)acetyl)piperidin-4-yl)-2-methyl-6-oxo-1,6-dihydropyrimidine-5-carboxamide]
7.22	Cc1nc(C2CCN(C(=O)Cc3c(F)cccc3F)CC2)c(/C=N/Oc2cccc(C(F)(F)F)c2)c(=O)[nH]1 [Compound I6, (E)-4-(1-(2-(2,6-Difluorophenyl)acetyl)piperidin-4-yl)-2-methyl-6-oxo-1,6-dihydropyrimidine-5-carbaldehyde O-3-(trifluoromethyl)phenyl oxime]
6.18	Cc1nc(C2CCN(C(=O)Cc3c(F)cccc3F)CC2)c(C(=O)NCc2cccc(C(F)(F)F)n2)c(=O)n1C [Compound I7, 4-(1-(2-(2,6-Difluorophenyl)acetyl)piperidin-4-yl)-1,2-dimethyl-6-oxo-N-((6-(trifluoromethyl)pyridin-2-yl)methyl)-1,6-dihydropyrimidine-5-carboxamide]
5.39	Cc1cc(C)cc(C(=O)NCc2cnc(C)nc2C2CCN(C(=O)Cc3c(F)cccc3F)CC2)c1 [Compound K1, N-((4-(1-(2-(2,6-Difluorophenyl)acetyl)piperidin-4-yl)-2-methylpyrimidin-5-yl)methyl)-3,5-dimethylbenzamide]
